Source: patent publication US20120004160A1, “METHODS FOR IDENTIFYING AND COMPOUNDS USEFUL FOR THE DIAGNOSIS AND TREATMENT OF DISEASES INVOLVING INFLAMMATION” (Glaxo Group Ltd., priority 2009, published 2012)

Each substance was assayed on human primary macrophages (assay: IL-10 release measured in the same supernatant (additional cytokine measurements)). Settings: effect of Ad-shRNA on IL-10 release; supernatant of on-target assay, macrophages triggered with IgG-coated beads; symbols not defined.
Format: cell-based
Procedure: 20 μL of supernatant was used in a TNFα readout assay (Meso Scale Discovery, (MSD), Gaithersburg, Md.). The measurements were performed according to manufacturer's instructions. 20 μL of sample solution were transferred by Tecan384 head on a Tecan freedom station to wells of a 384 well TNFα MSD readout plate(Meso Scale Discovery Catalog #K211BHB-6). A calibrator curve using calibrator from MSD was created using a multichannel pipette. The calibrator curve typically started at 10 ng/mL followed by 6 steps of a 3-fold dilution with a final volume of 10 μL. Plates were sealed and incubated for 2 hours on a shaking platform (set at ˜100 rounds per minute) at room temperature. Detection antibody (1.0 μg/mL) was added to the wells (10 μL for the calibrator and 20 μL for the samples) using a repetitive multichannel. Plates were sealed and incubated overnight at room temperature on a shaking platform (set at ˜100 rounds per minute). The plates were washed 3 times with PBS+0.05% Tween-20 using a Tecan washer (TECAN type, PW384). 35 μl of 2× Read Buffer T was added to each well using a multidrop. After addition of Read Buffer, the plates were read on an MSD SI6000 reader.
For the measurements of additional cytokines, such as IL-10, the supernatants were transferred using the TECAN Freedom with a TEMO-384 head. The cytokines were measured using 384 well plates purchased at Meso Scale Discovery and the methodology used is the same as described in Example 5. Hits were prioritized based on effects on IL-10 release.
In an shRNA screen there is the possibility that the observed effects are due to off-target effects: the shRNA knock down construct has an effect on expression of a different mRNA than the intended mRNA. To exclude possible off-target effects by the knockdown constructs the following “on-target” analysis was followed. For each target, the original Ad-shRNA plus 5 extra Ad-shRNA constructs against the same target were tested in the primary screening assay. If at least two independent shRNA sequences (including original confirmed drug targetAd-shRNA) give the same effect in one donor, the probability this is due to off target shRNA effects is negligible and the effect is declared “on-target”. For the on-target assay, the methods similar to the screen and rescreen were used as described in Examples 5 and 6. The TNFα release assay was performed as per Rescreen (see Example 6) except that the negative control viruses (Luc_v13) were repropagated alongside the on-target viruses. In total, 40 targets were taken along in the on-target assay, and for 15 targets multiple shRNA came up as a hit. In addition, IL-10 release was measured in the same supernatant as described in Examples 5 and 7. Table 3 indicates the effects of the shRNAs on the IL-10 release.

IL-10 sparing, ✓:
AGACATGGATGGGAAAGAC: Ad-shRNA knock-down construct, KD target sequence against CBR3 (the letters are possibly those of the target site)
ATGACCCTACAGGTTTACC: Ad-shRNA knock-down construct, KD target sequence against NEK10
CATACTGGAGCCTGTAACC: Ad-shRNA knock-down construct, KD target sequence against TNFRSF10C
CCAATGGTTACATGGCTCC: Ad-shRNA knock-down construct, KD target sequence against GRK7
CTCAGGAAGGTCTTTCCAC: Ad-shRNA knock-down construct, KD target sequence against SNF1LK
CTTGTGCGATGCTTTGAAC: Ad-shRNA knock-down construct, KD target sequence against ATIC
CTTGTGTGCCAGTGGATGC: Ad-shRNA knock-down construct, KD target sequence against BRS3
GGTGTCTTACTGCTGACTC: Ad-shRNA knock-down construct, target sequence against TNFRSF11A (Table 3 only, no SEQ ID NO) (the letters are possibly those of the target site)
GTTCTGCTGTGCATCTGCC: Ad-shRNA knock-down construct, KD target sequence against OPRL1
TATGCTGTAGGCTGCCTGC: Ad-shRNA knock-down construct, KD target sequence against PIK3CB (listed as Homo sapiens)
TGTCTACACCACTGCTGCC: Ad-shRNA knock-down construct, KD target sequence against RYR1 (the letters are possibly those of the target site; listed as Homo sapiens)
